Measured values: PubChem BioAssay (NCI)
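Growth conditions: 96-well plates. Treatment: test compound, 48 hours, 5 concentrations. Analysis: linear interpolation between bracketing concentrations; unreached endpoints set to highest concentration. The concentration for full growth arrest is given as TGI.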 Where a SMILES comes first, the peptide text is derived from it. [ ]: non-standard residue; d: D form. The star is where a group is joined. Bn2Val = CC(C)[C@@H](C(=O)*)N(Cc1ccccc1)Cc1ccccc1; NH(3,4-diMeO-benzyl) = COc1ccc(CN*)cc1OC; NMeV = CN[C@H](C(=O)O)C(C)C

Key:
Experiment in all cases: NCI tumour cell line growth inhibition, 48 h
TK-10 renal = test system: TK-10 renal
SN12C renal = test system: SN12C renal
SK-MEL-5 melanoma = test system: SK-MEL-5 melanoma
RPMI-8226 leukemia = test system: RPMI-8226 leukemia
OVCAR-4 ovarian = test system: OVCAR-4 ovarian
U251 CNS = test system: U251 CNS
OVCAR-3 ovarian = test system: OVCAR-3 ovarian
T-47D breast = test system: T-47D breast
NCI-H460 lung = test system: NCI-H460 lung
BT-549 breast = test system: BT-549 breast
UO-31 renal = test system: UO-31 renal
M14 melanoma = test system: M14 melanoma
DU-145 prostate = test system: DU-145 prostate
ACHN renal = test system: ACHN renal
LOX IMVI melanoma = test system: LOX IMVI melanoma
SF-295 CNS = test system: SF-295 CNS
HCT-116 colon = test system: HCT-116 colon
CCRF-CEM leukemia = test system: CCRF-CEM leukemia
A498 renal = test system: A498 renal

| Structure (SMILES) | TGI (TK-10 renal) [µM] | TGI (SN12C renal) [µM] | TGI (SK-MEL-5 melanoma) [µM] | TGI (RPMI-8226 leukemia) [µM] | TGI (OVCAR-4 ovarian) [µM] | TGI (U251 CNS) [µM] | TGI (OVCAR-3 ovarian) [µM] | TGI (T-47D breast) [µM] | TGI (NCI-H460 lung) [µM] | TGI (BT-549 breast) [µM] | TGI (UO-31 renal) [µM] | TGI (M14 melanoma) [µM] | TGI (DU-145 prostate) [µM] | TGI (ACHN renal) [µM] | TGI (LOX IMVI melanoma) [µM] | TGI (SF-295 CNS) [µM] | TGI (HCT-116 colon) [µM] | TGI (CCRF-CEM leukemia) [µM] | TGI (A498 renal) [µM] |
| --- | --- | --- | --- | --- | --- | --- | --- | --- | --- | --- | --- | --- | --- | --- | --- | --- | --- | --- | --- |
| O=C(O)c1ccc(NNC(=O)c2cccc3c(=O)c4ccccc4[nH]c23)cc1 | > 100 | > 100 | > 100 | > 100 | > 100 | > 100 | > 100 | > 100 | > 100 | > 100 | > 100 | > 100 | > 100 | > 100 | > 100 | > 100 | > 100 | > 100 |  |
| CCc1ccccc1NC(=O)C(=O)CC(=O)c1sc(Nc2ccccc2Cl)nc1C | > 100 | > 100 | 52.4 | 65.6 | > 100 | > 100 | 61 | > 100 | 46.1 | > 100 | > 100 | 63.7 | > 100 | > 100 | 44 | 99.2 | 50.4 | 58.9 |  |
| O=C(c1cccs1)N(Cc1cccnc1)C(=S)N(Cc1cccnc1)C(=O)c1cccs1 | > 100 | > 100 | > 100 |  | > 100 | > 100 | > 100 | > 100 | > 100 | > 100 | > 100 | > 100 | > 100 | > 100 | > 100 | > 100 | > 100 | > 100 | 97.4 |
| COc1ccc(C2=NN(C(=O)c3cccnc3)C(O)(c3cc(F)c(Cl)cc3Cl)C2)cc1OC (centres undefined) | > 100 | 34.7 | 25 | 73 | > 100 | 29.1 | 27.6 | > 100 | 38.3 | 41.5 | 85 | 34.6 | > 100 | 57.9 | 27.2 | 39 | 29.2 | > 100 |  |
| CCn1c2ccccc2c2cc(NC(=O)c3c(NCCNCCO)nc(=O)[nH]c3C)ccc21 | > 100 | > 100 | > 100 |  | > 100 | > 100 | > 100 | > 100 | > 100 | > 100 | > 100 | > 100 | > 100 | > 100 | > 100 | > 100 | > 100 | > 100 | > 100 |
| CCOC(=O)c1ccc(N=c2oc3ccc(OC)cc3cc2-c2nc3ccccc3[nH]2)cc1 | > 100 | > 100 | 80.4 | > 100 | > 100 | > 100 | > 100 | > 100 | > 100 | > 100 | > 100 | > 100 | > 100 | > 100 | > 100 | > 100 | > 100 | > 100 |  |
| CCN(CC)C(=S)SS(=O)(=O)c1ccc(NC(C)=O)cc1 | > 76 | 39.1 | 20.9 | 44 | 54.3 | 44.6 | > 100 | > 100 | > 100 | > 78.4 | 42.6 | 33 | > 75.4 | > 88.8 | 31.8 | > 100 | 31.1 |  | > 89.5 |
| O=C(CC(=O)N1N=C(N(c2ccccc2)c2ccccc2)CC1c1ccccc1)Nc1ccccc1 (centres undefined) | > 100 |  | > 100 | > 100 | > 100 | > 100 | > 100 | > 100 | > 100 | > 100 | > 100 | > 100 | > 100 | > 100 |  | > 100 | > 100 | > 100 |  |
| COc1ccc(C(SCC(N)C(=O)O)(c2ccc(OC)cc2)c2ccc(OC)cc2)cc1 (centres undefined) | 25.6 | 17.7 |  | > 31.6 | 27.7 | 29.8 | 17.1 | 21.4 | 17.3 | 28 | 20 | 15.1 |  | 18.6 | 17.2 | 17.8 | 15.6 | > 31.6 | 22.7 |
| COc1cc2c(cc1OC)C(=O)/C(=C/c1ccc([N+](=O)[O-])cc1)CC2 | > 10 | > 10 | > 10 | > 10 | > 10 | > 10 | > 10 | > 10 | > 10 | > 10 |  | > 10 | > 10 | > 10 | > 10 | > 10 | > 10 | > 10 |  |
| COC(=O)c1ccccc1C1CN=NC12Cc1cc(C)cc(C)c1C2=O (centres undefined) | > 100 | > 100 | > 100 |  | > 100 | > 100 | > 100 | > 100 | > 100 | > 100 | > 100 | > 100 | > 100 | > 100 | > 100 | > 100 | > 100 | > 100 | 66.2 |
| O=C(c1ccccc1)C1C[C@H]2CO[C@H](c3ccccc3)N2C1=O (some centres undefined) | > 100 | > 100 | > 100 | > 100 | > 100 | > 100 | > 100 | > 100 | > 100 | > 100 | > 100 | > 100 | > 100 | > 100 | > 100 | > 100 | > 100 | > 100 |  |
| COc1ccc(-n2sc3ncc([N+](=O)[O-])cc3c2=O)cc1 | > 100 | > 100 | > 100 | > 100 | > 100 | > 100 | > 100 | > 100 | > 100 | > 100 | > 100 | > 100 | > 100 | > 100 | > 100 | > 100 | > 100 | > 100 |  |
| CCOC(=O)c1cc2cc(C)cc(C(=O)c3ccc([N+](=O)[O-])cc3)c2[nH]1 | > 100 | > 100 | > 100 | > 100 | > 100 | > 100 | > 100 | > 100 | > 100 | > 100 | > 100 | > 100 | > 100 | > 100 | > 100 | > 100 | > 100 |  | > 100 |
| COc1ccc(CNC(=O)[C@@H]2CCCN2C(=O)[C@@H]2CCCN2C(=O)[C@H](C(C)C)N(C)C(=O)[C@@H](NC(=O)[C@H](C(C)C)N(Cc2ccccc2)Cc2ccccc2)C(C)C)cc1OC (Bn2Val-V[NMeV]PP-{NH(3,4-diMeO-benzyl)}) | 29.5 | 29.9 | 20.4 |  | 42.6 | 45.7 | 27.6 | 48.3 | > 60.5 | 34.5 |  | 29.4 | 30.1 | 28 | 16.4 | 29.9 | 29.5 | > 100 | 31.6 |
| O=[N+]([O-])c1ccc(C(=Nc2ccccc2)SSC(=Nc2ccccc2)c2ccc([N+](=O)[O-])o2)o1 | 13.9 | 4.48 | 20.9 |  | 3 | 2.24 | 3.38 | 5.79 | > 25.5 | 3.69 | 2.82 | 4.85 | 3.6 | 5.21 | 3.83 | 8.31 | 2.95 |  |  |
| O=C(OCc1ccccc1)N1CCCc2c(n(S(=O)(=O)c3ccccc3)c3ccccc23)C1 | > 100 | > 100 | > 100 | > 100 | > 100 | > 100 | > 100 | > 100 | > 100 | > 100 | > 100 | > 100 | > 100 | > 100 | > 100 | > 100 | > 100 |  | > 100 |
| CN(C)Cc1cc(/C=C/C(=O)c2ccc(Cl)c(Cl)c2)cc(CN(C)C)c1O | 25.6 | 30.2 | 28.1 | 36.8 |  |  | 23.8 | 24.1 | 22.7 | 22.2 | 19.6 | 33.3 | 27.1 | 25.4 |  | 36.1 | 26.1 | 16.9 | 32.4 |
| CCOC(=O)c1cc(C#N)[nH]c1-c1ccsc1 | > 100 | > 100 | > 100 | 65.6 | > 100 | 87.8 | 96 |  | > 100 | > 100 |  | > 100 | 58.8 | > 100 | > 100 | > 100 | > 100 | 69.3 | > 100 |
| CC(=O)CCC[C@H](C)[C@@H](O)[C@@H]1O[C@H]([C@@]2(C)CCC(=O)O2)C[C@H]1C(=O)O | > 100 | > 100 | > 100 | > 100 | > 100 | > 100 | > 100 | > 100 | > 100 | > 100 | > 100 |  | > 100 | > 100 | > 100 | > 100 | > 100 | > 100 |  |
| O=C1OC(CS(=O)(=O)c2ccccc2)CC1O (centres undefined) | > 100 | > 100 | > 100 | > 100 | > 100 | > 100 | > 100 |  | > 100 | > 100 | > 100 | > 100 | > 100 | > 100 | > 100 | > 100 | > 100 | > 100 | > 100 |
| CC1=C[C@@H]2[C@@H](CC(CO)=C[C@H]3[C@@H]4C(C)(C)[C@]4(OCC(C)C)[C@H](OCC(C)C)[C@@H](C)[C@]23O)C1=O | > 5.97 | 4.22 | > 4.37 |  | > 8.32 | 4.15 | 5.46 | > 8.32 | > 8.32 | 2.65 | > 6.8 | > 5.15 | > 8.32 | 3.4 | 3.06 | > 8.32 | > 4.72 | 8.12 | > 4.44 |
| NC(=O)OCc1c(-c2ccccc2)nn(-c2ccccc2)c1COC(N)=O | > 100 | > 100 | > 100 | > 100 | > 100 | > 100 | > 100 | > 100 |  | > 100 | > 100 | > 100 | > 100 |  |  | > 100 | > 100 |  |  |
| CC1c2cc(c3c(c2O)CN([C@@H](C)C2CCCCC2)CO3)C(C)c2cc(c3c(c2O)CN([C@@H](C)C2CCCCC2)CO3)C(C)c2cc(c3c(c2O)CN([C@@H](C)C2CCCCC2)CO3)C(C)c2cc1c1c(c2O)CN([C@@H](C)C2CCCCC2)CO1 (some centres undefined) | 3.19 | 2.29 | 3.46 | 2.15 | 3.03 | 2.83 | 2.93 | 3.23 | 2.53 | 3.49 | 3.21 | > 23.7 | 2.64 | 2.78 |  |  | 2.04 | 1.45 | 3.57 |
| CC1=CC(=O)/C(=C/n2c(=S)[nH]c3ccc([N+](=O)[O-])cc32)C(=O)O1 | > 100 | > 100 | > 100 | > 100 | > 100 | > 100 | > 100 | > 100 | > 100 | > 100 | > 100 | > 100 | > 100 | > 100 | > 100 | > 100 | > 100 | > 100 |  |
